Measurements taken from PMC4007584 (Journal of biomolecular screening, 2013).
Structures can show the parent of a compound that is named as a salt.

Columns and labels:
PDE10A = conditions: literature; cited from earlier work
[1] = target: catalytic domain of PDE10A2 (Homo sapiens, UniProt Q9Y233); assay: PDE10A calorimetric activity assay; format: biochemical
R6/2 mice = conditions: IP beginning at 4 weeks of age; cited from earlier work

Chain of catalytic domain of PDE10A2 (Q9Y233 715-1055 limits assumed): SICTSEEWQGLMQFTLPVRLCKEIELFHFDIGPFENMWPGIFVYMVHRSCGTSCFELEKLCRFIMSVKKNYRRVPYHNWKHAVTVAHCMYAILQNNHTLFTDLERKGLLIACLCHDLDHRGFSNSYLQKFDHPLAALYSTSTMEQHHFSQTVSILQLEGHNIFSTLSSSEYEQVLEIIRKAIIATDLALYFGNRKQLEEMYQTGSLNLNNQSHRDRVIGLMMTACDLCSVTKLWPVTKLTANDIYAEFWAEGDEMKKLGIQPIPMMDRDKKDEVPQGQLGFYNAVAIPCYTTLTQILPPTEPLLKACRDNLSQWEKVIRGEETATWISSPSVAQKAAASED

Ligand Efficiency PDE10A ([1]; Table 1, from enthalpy array KI) [kcal mol^−1 HA^−1]	Structure (SMILES)	IC50 (PDE10A) [µM]	Ki [1] [µM]	inhibition mechanism, PDE10A [1]	reduction of the loss of striatal size (R6/2 mice) [%]
0.41	CC(C)Cn1c(=O)n(C)c(=O)c2[nH]cnc21 [IBMX, 3-isobutyl-1-methylxanthine]	11	17 ± 6.6	competitive inhibition	–
–	COc1ccc(Cc2nccc3cc(OC)c(OC)cc23)cc1OC [Papaverine, papaverine hydrochloride]	0.095	–	competitive inhibition	–
–	CC(=O)CCCCn1c(=O)c2c(ncn2C)n(C)c1=O [Pentoxifylline, pentoxifylline]	–	200 ± 60	competitive inhibition	–
–	FC(F)(F)Cn1cc(-c2ccncc2)c(-c2ccc(OCc3ccc4ccccc4n3)cc2)n1 [TP-10]	–	–	–	50
